Reference: patent US4016159A, “Acylamino-cephem-carboxylic acids containing an amidino or guanidino group in the molecule” (Hoechst Aktiengesellschaft, priority 1973, dated 1977)
≈ marks a conversion by molar mass, not a printed value.

Key:
Type in all cases: cell-based
[1] = tested on: Staphylococcus aureus 285; experiment: Minimum inhibition concentration (MIC), Table 1; conditions: Staphylococcus aureus, 285, Germ: Staphylococcus aureus 285; read-out: Minimum inhibition concentration (MIC)
From the text: (§1) Minimum inhibition concentration (MIC) in γ/ml
Germ: Staphylococcus aureus 285

[2] = tested on: Staphylococcus aureus SG 511; experiment: Minimum inhibition concentration (MIC), Table 5; conditions: Staphylococcus aureus, SG511, Germ: Staphylococcus aureus SG 511; read-out: Minimum inhibition concentration (MIC)
From the text: as §1
Germ: Staphylococcus aureus SG 511

Streptococcus D = experiment: Minimum inhibition concentration (MIC), Table 4; conditions: Streptococcus, Germ: Streptococcus D; read-out: Minimum inhibition concentration (MIC)
From the text: as §1

Streptococcus pyogenes A = experiment: Minimum inhibition concentration (MIC), Table 3; conditions: Germ: Streptococcus pyogenes A; read-out: Minimum inhibition concentration MIC
From the text: Minimum inhibition concentration MIC in γ/ml
Germ: Streptococcus pyogenes A

Proteus mirabilis = experiment: Minimum inhibition concentration (MIC), Table 2; conditions: Germ: Proteus mirabilis; read-out: Minimum inhibition concentration (MIC)
From the text: Minimum inhibition concentration (MIC) in /ml

| Structure (SMILES) | MIC [1] [µg/mL] | MIC [2] [µg/mL] | MIC (Streptococcus D) [µg/mL] | MIC (Streptococcus pyogenes A) [µg/mL] | MIC (Proteus mirabilis) [µg/mL] |
| --- | --- | --- | --- | --- | --- |
| O=C(Cc1ccc(C2=NCCCN2)cc1)NC1C(=O)N2C(C(=O)O)=C(CSc3ccc([N+](=O)[O-])cn3)CSC12 (centres unmarked) [Example 105, 3-[(5-nitropyridine-2-yl)-thiomethyl]-7-[4-(1,4,5,6-tetrahydropyrimide-2-yl)-phenylacetamido]-Δ3-cephem-4-carboxylic acid] | 0.156 to 0.391 (≈ 0.274 to 0.688 µM) | 0.0625 to 0.078 (≈ 0.11 to 0.137 µM) | 10 to 50 (≈ 17.6 to 87.9 µM) | 0.000391 to 0.0078 (≈ 0.000688 to 0.0137 µM) | – |
| Cc1nc(SCC2=C(C(=O)O)N3C(=O)C(NC(=O)Cc4ccc(C5=NCCCN5)cc4)C3SC2)sc1C (centres unmarked) [Example 106, 3-[(4,5-dimethylthiazole-2-yl)-thiomethyl]-7-[4-(1,4,5,6-tetrahydropyrimide-2-yl)-phenylacetamido]-Δ3-cephem-4-carboxylic acid] | 0.156 to 0.391 (≈ 0.28 to 0.701 µM) | 0.0625 to 0.078 (≈ 0.112 to 0.14 µM) | 10 to 50 (≈ 17.9 to 89.7 µM) | 0.000391 to 0.0078 (≈ 0.000701 to 0.014 µM) | – |
| O=C(Cc1ccc(C2=NCCCN2)cc1)NC1C(=O)N2C(C(=O)O)=C(CSc3cccc[n+]3[O-])CSC12 (centres unmarked) [Example 107, 3-[(1-oxido-2-pyridyl)-thiomethyl]-7-[4-(1,4,5,6-tetrahydropyrimide-2-yl)-phenylacetamido]-Δ3-cephem-4-carboxylic acid] | 1.6 to 2.5 (≈ 2.96 to 4.63 µM) | – | 10 to 50 (≈ 18.5 to 92.7 µM) | – | 25 (≈ 46.3 µM) |
| Cc1nsc(SCC2=C(C(=O)O)N3C(=O)C(NC(=O)Cc4ccc(C5=NCCCN5)cc4)C3SC2)n1 (centres unmarked) [Example 108, 3-[(3-methyl-1,2,4-thiadiazole-5-yl)-thiomethyl]-7-[4-(1,4,5,6-tetrahydropyrimide-22-yl)-phenylacetamido]-Δ3-cephem-4-carboxylic acid] | 0.156 to 0.391 (≈ 0.286 to 0.718 µM) | 0.0625 to 0.078 (≈ 0.115 to 0.143 µM) | 10 to 50 (≈ 18.4 to 91.8 µM) | 0.000391 to 0.0078 (≈ 0.000718 to 0.0143 µM) | – |
| O=C(Cc1ccc(C2=NCCCN2)cc1)NC1C(=O)N2C(C(=O)O)=C(CSc3nc4ccccc4o3)CSC12 (centres unmarked) [Example 109, 3-[(benzoxazole-2-yl)-thiomethyl]-7-[4-(1,4,5,6-tetrahydropyrimide-2-yl)-phenylacetamido]-Δ3-cephem-4-carboxylic acid] | 0.156 to 0.391 (≈ 0.277 to 0.694 µM) | 0.0625 to 0.078 (≈ 0.111 to 0.138 µM) | 10 to 50 (≈ 17.7 to 88.7 µM) | 0.000391 to 0.0078 (≈ 0.000694 to 0.0138 µM) | – |
| CC(C)(C)c1csc(SCC2=C(C(=O)O)N3C(=O)C(NC(=O)Cc4ccc(C5=NCCN5)cc4)C3SC2)n1 (centres unmarked) [Example 111, 3-[(4-tert.butyl-thiazole-2-yl)-thiomethyl]-7-[-4-(imidazoline-2-yl)-phenylacetamido]-Δ3-cephem-4-carboxylic acid] | 0.156 to 0.391 (≈ 0.273 to 0.684 µM) | 0.0625 to 0.078 (≈ 0.109 to 0.136 µM) | 0.196 to 6.25 (≈ 0.343 to 10.9 µM) | 0.000391 to 0.0078 (≈ 0.000684 to 0.0136 µM) | – |
| CC(C)c1csc(SCC2=C(C(=O)O)N3C(=O)C(NC(=O)Cc4ccc(C5=NCCN5)cc4)C3SC2)n1 (centres unmarked) [Example 112, 3-[(4-isopropyl-thiazole-2-yl)-thiomethyl]-7-[4-(imidazoline-2-yl)-phenylacetamido]-Δ3-cephem-4-carboxylic acid] | 0.156 to 0.391 (≈ 0.28 to 0.701 µM) | 0.0625 to 0.078 (≈ 0.112 to 0.14 µM) | 0.196 to 6.25 (≈ 0.351 to 11.2 µM) | 0.000391 to 0.0078 (≈ 0.000701 to 0.014 µM) | – |
| CCCCc1csc(SCC2=C(C(=O)O)N3C(=O)C(NC(=O)Cc4ccc(C5=NCCN5)cc4)C3SC2)n1 (centres unmarked) [Example 113] | 0.156 to 0.391 (≈ 0.273 to 0.684 µM) | 0.0625 to 0.078 (≈ 0.109 to 0.136 µM) | 0.196 to 6.25 (≈ 0.343 to 10.9 µM) | 0.000391 to 0.0078 (≈ 0.000684 to 0.0136 µM) | – |
| CCCc1csc(SCC2=C(C(=O)O)N3C(=O)C(NC(=O)Cc4ccc(C5=NCCN5)cc4)C3SC2)n1 (centres unmarked) [Example 114, 3-[(4-n-propyl-thiazole-2-yl)-thiomethyl]-7-[4-(imidazoline-2-yl)-phenylacetamido]-Δ3-cephem-4-carboxylic acid] | 0.156 to 0.391 (≈ 0.28 to 0.701 µM) | 0.0625 to 0.078 (≈ 0.112 to 0.14 µM) | 0.196 to 6.25 (≈ 0.351 to 11.2 µM) | 0.000391 to 0.0078 (≈ 0.000701 to 0.014 µM) | – |
| O=C(Cc1ccc(C2=NCCN2)cc1)NC1C(=O)N2C(C(=O)O)=C(CSc3nnc(-c4ccccc4)o3)CSC12 (centres unmarked) [Example 116, 3-[(5-phenyl-1,3,4-oxadiazole-2-yl)-thiomethyl]-7-[4-(imidazoline-2-yl)-phenylacetamido]-Δ3-cephem-4-carboxylic acid] | 0.5 to 1.25 (≈ 0.867 to 2.17 µM) | 0.0625 to 0.078 (≈ 0.108 to 0.135 µM) | 10 to 50 (≈ 17.3 to 86.7 µM) | 0.000391 to 0.0078 (≈ 0.000678 to 0.0135 µM) | – |
| O=C(Cc1ccc(C2=NCCN2)cc1)NC1C(=O)N2C(C(=O)O)=C(CSc3nc(-c4ccccc4)cs3)CSC12 (centres unmarked) [Example 117, 3-[(4-phenyl-thiazole-2-yl)-thiomethyl]-7-[4-(imidazoline-2-yl)-phenylacetamido]-Δ3-cephem-4-carboxylic acid] | 0.5 to 1.25 (≈ 0.845 to 2.11 µM) | 0.0625 to 0.078 (≈ 0.106 to 0.132 µM) | 10 to 50 (≈ 16.9 to 84.5 µM) | 0.000391 to 0.0078 (≈ 0.000661 to 0.0132 µM) | – |
| CCc1nnc(SCC2=C(C(=O)O)N3C(=O)C(NC(=O)Cc4ccc(C(=N)N)cc4)C3SC2)s1 (centres unmarked) [Example 122, 3-[(5-ethyl-1,3,4-thiadiazole-2-yl)-thiomethyl]-7-(4-amidino-phenylacetamido)-Δ3-cephem-4-carboxylic acid] | 0.5 to 1.25 (≈ 0.964 to 2.41 µM) | 0.0625 to 0.078 (≈ 0.121 to 0.15 µM) | 10 to 50 (≈ 19.3 to 96.4 µM) | 0.008 to 0.0156 (≈ 0.0154 to 0.0301 µM) | – |
